The values that follow are results of earlier work, collected in patent US8450280B2, “Activation of peptide prodrugs by hK2” (GenbSpera, Inc., priority 1999, dated 2013).

Some results are limits rather than exact numbers.

The series concerns the target sarcoplasmic reticulum (SR) and endoplasmic reticulum (ER) Ca^2+-ATPase (SERCA) pump. Particulars: read-out: apparent dissociation constant; cited from earlier work.

Take `C/C=C(/C)C(=O)O[C@H]1C(C)=C2[C@H]([C@@H]1OC(=O)CCCCCCC)[C@@](C)(OC(C)=O)C[C@H](OC(=O)CCC)[C@@]1(O)[C@H]2OC(=O)[C@@]1(C)O` [TG, Thapsigargin]: the Kd was at most 2.2 pM.
